We go through 14 compounds from patent US9216986B1, “Quinoline derivatives as PDE10A enzyme inhibitors” (H. Lundbeck A/S, priority 2011, dated 2015).

As usually defined, the IC50 is the point on the concentration scale where inhibition reaches its midpoint.

Assay [1] deals with rats. As to conditions: cited from earlier work.
In assay [2] the test system is rats. As to conditions: cited from earlier work. The source holds these as a separate data set.
Assay [3] deals with rats. As to conditions: cited from earlier work. The source holds these as a separate data set.
For another assay, the target named is PDE10A enzyme (Homo sapiens (Human), UniProt Q9Y233). Put plainly: PDE10A inhibition assay. As to conditions: tritium labeled cAMP 5 nM. It counts as biochemical. As to the method:
Active PDE10A enzyme is prepared in a number of ways for use in PDE assays (Loughney, K. et al. Gene 1999, 234, 109-117; Fujishige, K. et al. Eur J Biochem. 1999, 266, 1118-1127 and Soderling, S. et al. Proc. Natl. Acad. Sci. 1999, 96, 7071-7076). PDE10A can be expressed as full-length proteins or as truncated proteins, as long as they express the catalytic domain. PDE10A can be prepared in different cell types, for example insect cells or E. coli. An example of a method to obtain catalytically active PDE10A is as follows: The catalytic domain of human PDE10A (amino acids 440-779 from the sequence with accession number NP 006652) is amplified from total human brain total RNA by standard RT-PCR and is cloned into the BamH1 and Xho1 sites of the pET28a vector (Novagen). Expression in coli is performed according to standard protocols. Briefly, the expression plasmids are transformed into the BL21(DE3) E. coli strain, and 50 mL cultures inoculated with the cells allowed to grow to an OD600 of 0.4-0.6 before protein expression is induced with 0.5 mM IPTG. Following induction, the cells are incubated overnight at room temperature, after which the cells are collected by centrifugation. Cells expressing PDE10A are resuspended in 12 mL (50 mM TRIS-HCl-pH8.0, 1 mM MgCl2 and protease inhibitors). The cells are lysed by sonication, and after all cells are lysed, TritonX100 is added according to Novagen protocols.
A PDE10A assay may for example, be performed as follows: The assay is performed in 60 uL samples containing a fixed amount of the relevant PDE enzyme (sufficient to convert 20-25% of the cyclic nucleotide substrate), a buffer (50 mM HEPES7.6; 10 mM MgCl2; 0.02% Tween20), 0.1 mg/ml BSA, 225 pCi of ^3H-labelled cyclic nucleotide substrate, tritium labeled cAMP to a final concentration of 5 nM and varying amounts of inhibitors. Reactions are initiated by addition of the cyclic nucleotide substrate, and reactions are allowed to proceed for one hr at room temperature before being terminated through mixing with 15 uL 8 mg/mL yttrium silicate SPA beads (Amersham). The beads are allowed to settle for one hr in the dark before the plates are counted in a Wallac 1450 Microbeta counter. The measured signal can be converted to activity relative to an uninhibited control (100%) and IC50 values can be calculated using the XIfit extension to EXCEL.

PDE10A enzyme, sequence (Q9Y233 716-1055): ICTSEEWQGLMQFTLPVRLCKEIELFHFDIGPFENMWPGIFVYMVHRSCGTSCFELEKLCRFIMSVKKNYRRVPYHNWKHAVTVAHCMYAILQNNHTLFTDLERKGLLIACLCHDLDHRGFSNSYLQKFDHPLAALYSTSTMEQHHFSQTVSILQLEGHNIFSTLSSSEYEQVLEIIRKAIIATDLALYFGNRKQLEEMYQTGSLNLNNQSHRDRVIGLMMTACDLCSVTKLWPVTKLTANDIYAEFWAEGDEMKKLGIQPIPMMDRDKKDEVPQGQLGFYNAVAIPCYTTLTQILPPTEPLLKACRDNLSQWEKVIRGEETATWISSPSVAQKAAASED

Consider `COc1ccc(Cc2nccc3cc(OC)c(OC)cc23)cc1OC` [Papaverine, papaverine], for which, in the assay on rats [1] (papaverine alone), the “catalepsy on its own” value is given as “did not cause catalepsy on its own”. Moreover, the “cataleptic effect of the D2 receptor antagonist haloperidol” value with rats [1] (together with haloperidol) was “potentiated the cataleptic effect”. In the assay with rats [2], the “hyperactivity induced by PCP” value is recorded as “reduced hyperactivity”. Moreover, the “reduction of amphetamine induced hyperactivity” value in the assay with rats [3] is recorded as “insignificant”.

For `Cc1ncc(C)n2nc(/C=C/c3ccc4ccc(C(F)(F)F)cc4n3)nc12` [2-[(E)-2-(5,8-Dimethyl-[1,2,4]triazolo[1,5-a]pyrazin-2-yl)-vinyl]-7-trifluoromethyl-quinoline], the IC50 against PDE10A enzyme was found to be 550 nM.

As for `COc1cc(CCc2nc3c(C)ncc(C)n3n2)nc2ccccc12` [2-[2-(5,8-Dimethyl-[1,2,4]triazolo[1,5-a]pyrazin-2-yl)-ethyl]-4-methoxy-quinoline], the IC50 on PDE10A enzyme came to 12 nM.

The compound `Cc1ncc(C)n2nc(/C=C/c3ccc4cc(C#N)ccc4n3)nc12` [2-[(E)-2-(5,8-Dimethyl-[1,2,4]triazolo[1,5-a]pyrazin-2-yl)-vinyl]-6-cyano-quinoline] returned an IC50 on PDE10A enzyme of 2100 nM.

Take `Cc1ncc(C)n2nc(CCc3ccc4cc5c(cc4n3)OCCO5)nc12` [7-[2-(5,8-Dimethyl-[1,2,4]triazolo[1,5-a]pyrazin-2-yl)-ethyl]-2,3-dihydro-[1,4]dioxino[2,3-g]quinoline]: on PDE10A enzyme, the IC50 turned out to be 4 nM.

Compound `Cc1ncc(C)n2nc(CCc3ccc4cc5c(cc4n3)OCO5)nc12` [6-[2-(5,8-Dimethyl-[1,2,4]triazolo[1,5-a]pyrazin-2-yl)-ethyl]-[1,3]dioxolo[4,5-g]quinoline] registered an IC50 against PDE10A enzyme of 13 nM.

Take `Cc1cc(F)cc2ccc(CCc3nc4c(C)ncc(C)n4n3)nc12` [2-[2-(5,8-Dimethyl-[1,2,4]triazolo[1,5-a]pyrazin-2-yl)-ethyl]-6-fluoro-8-methyl-quinoline]: at PDE10A enzyme, half-maximal inhibition (IC50) required 2000 nM. This IC50 is about 150-fold higher than that of the compound before.

In the case of `COc1cccc2nc(/C=C/c3nc4c(C)ncc(C)n4n3)ccc12` [2-[(E)-2-(5,8-Dimethyl-[1,2,4]triazolo[1,5-a]pyrazin-2-yl)-vinyl]-5-methoxy-quinoline], the IC50 against PDE10A enzyme amounted to 19 nM.

Compound `Cc1cc(C)n2cc(/C=C/c3ccc4ccccc4n3)nc2n1` [2-[(E)-2-(5,7-Dimethyl-imidazo[1,2-a]pyrimidin-2-yl)-vinyl]-quinoline] registered an IC50 at PDE10A enzyme of 320 nM.

Consider `Cc1ncc(C)n2nc(CCc3ccc4cc(Cl)ccc4n3)nc12` [6-Chloro-2-[2-(5,8-dimethyl-[1,2,4]triazolo[1,5-a]pyrazin-2-yl)-ethyl]-quinoline], for which the concentration for half-maximal inhibition (IC50) at PDE10A enzyme was determined as 42 nM.

As for `COc1ccc(C)n2nc(CCc3ccc4cccc(F)c4n3)nc12` [8-Fluoro-2-[2-(8-methoxy-5-methyl-[1,2,4]triazolo[1,5-a]pyridin-2-yl)-ethyl]-quinoline], at PDE10A enzyme, it took 150 nM to reach half-maximal inhibition (IC50).

The compound `Cc1ncc(C)n2nc(CCc3ccc4c(F)cc(F)cc4n3)nc12` [2-[2-(5,8-Dimethyl-[1,2,4]triazolo[1,5-a]pyrazin-2-yl)-ethyl]-5,7-difluoro-quinoline] gave an IC50 against PDE10A enzyme of 110 nM.

Compound `COc1ccc(C)n2nc(/C=C/c3cc(Cl)c4cccc(F)c4n3)nc12` [4-Chloro-8-fluoro-2-[(E)-2-(8-methoxy-5-methyl-[1,2,4]triazolo[1,5-a]pyridin-2-yl)-vinyl]-quinoline] displayed a concentration for half-maximal inhibition (IC50) on PDE10A enzyme of 270 nM.

For the compound `COc1ccc2nc(CCc3nc4nc(C)cc(C)n4n3)ccc2c1` [2-[2-(5,7-Dimethyl-[1,2,4]triazolo[1,5-a]pyrimidin-2-yl)-ethyl]-6-methoxy-quinoline], on PDE10A enzyme, it took 170 nM to reach half-maximal inhibition (IC50). This IC50 lies about 1.6-fold lower than the previous one.
